Results on 5 compounds are retold here after ChEMBL document CHEMBL5143607, “Discovery and structure-activity relationships of a novel oxazolidinone class of bacterial type II topoisomerase inhibitors” (Bioorg Med Chem Lett, 2022).

The term IC50 denotes the concentration that gives 50% inhibition. A word on the MIC: it is the lowest concentration that inhibits growth of the organism. Usually logD stands for lipophilicity at a set pH, counting ionised and neutral species. For orientation: MIC90 means the lowest concentration that inhibits either 90% of growth or 90% of the strains tested, depending on the study.

Data set [1] deals with DNA gyrase (Escherichia coli, UniProt P0AES4+P0AES6). The data set can be described thus: Inhibition of Escherichia coli DNA gyrase supercoiling activity. In kind it is protein-complex assay.
Data set [2] in a line: Inhibition of Escherichia coli topoisomerase 4 assessed as reduction in decatenation.
Data set [3] in a line: Cytotoxicity against human HepG2 cells assessed as reduction in cell viability for 24 hrs by Celltiter-Glo assay. It counts as toxicity, cell-based. (Cellular ATP, detected with luciferase, serves as a proxy for viable cell number.)
Data set [4] concerns Acinetobacter baumannii. As to the kind of experiment: Antibacterial activity against Acinetobacter baumannii NCTC 13420 assessed as bacterial growth inhibition by CLSI protocol based assay. In kind it is functional.
Data set [5] relates to Klebsiella pneumoniae. As to the kind of experiment: Antibacterial activity against Klebsiella pneumoniae ATCC 700603 assessed as bacterial growth inhibition by CLSI protocol based assay. In kind it is functional.
Data set [6] relates to Pseudomonas aeruginosa. As to the kind of experiment: Antibacterial activity against Pseudomonas aeruginosa ATCC 27853 assessed as bacterial growth inhibition by CLSI protocol based assay. It counts as functional.
The subject of data set [7] is Escherichia coli. The data set can be described thus: Antibacterial activity against Escherichia coli W4573 assessed as bacterial growth inhibition by CLSI protocol based assay. In kind it is functional.
For data set [8], the system named is Escherichia coli. The data set can be described thus: Antibacterial activity against Escherichia coli N43 assessed as bacterial growth inhibition by CLSI protocol based assay. In kind it is functional.
Data set [9] deals with Staphylococcus aureus. The data set can be described thus: Antibacterial activity against Staphylococcus aureus ATCC 29213 assessed as bacterial growth inhibition by CLSI protocol based assay. It counts as functional.
For data set [10], the target named is Voltage-gated inwardly rectifying potassium channel KCNH2 (Homo sapiens, UniProt Q12809). As to the kind of experiment: Inhibition of human ERG by Ionworks electrophysiology assay. In kind it is toxicity. A general note: Patch clamp records ionic current or voltage across a cell membrane.
Sequence of Voltage-gated inwardly rectifying potassium channel KCNH2 (Q12809 whole entry): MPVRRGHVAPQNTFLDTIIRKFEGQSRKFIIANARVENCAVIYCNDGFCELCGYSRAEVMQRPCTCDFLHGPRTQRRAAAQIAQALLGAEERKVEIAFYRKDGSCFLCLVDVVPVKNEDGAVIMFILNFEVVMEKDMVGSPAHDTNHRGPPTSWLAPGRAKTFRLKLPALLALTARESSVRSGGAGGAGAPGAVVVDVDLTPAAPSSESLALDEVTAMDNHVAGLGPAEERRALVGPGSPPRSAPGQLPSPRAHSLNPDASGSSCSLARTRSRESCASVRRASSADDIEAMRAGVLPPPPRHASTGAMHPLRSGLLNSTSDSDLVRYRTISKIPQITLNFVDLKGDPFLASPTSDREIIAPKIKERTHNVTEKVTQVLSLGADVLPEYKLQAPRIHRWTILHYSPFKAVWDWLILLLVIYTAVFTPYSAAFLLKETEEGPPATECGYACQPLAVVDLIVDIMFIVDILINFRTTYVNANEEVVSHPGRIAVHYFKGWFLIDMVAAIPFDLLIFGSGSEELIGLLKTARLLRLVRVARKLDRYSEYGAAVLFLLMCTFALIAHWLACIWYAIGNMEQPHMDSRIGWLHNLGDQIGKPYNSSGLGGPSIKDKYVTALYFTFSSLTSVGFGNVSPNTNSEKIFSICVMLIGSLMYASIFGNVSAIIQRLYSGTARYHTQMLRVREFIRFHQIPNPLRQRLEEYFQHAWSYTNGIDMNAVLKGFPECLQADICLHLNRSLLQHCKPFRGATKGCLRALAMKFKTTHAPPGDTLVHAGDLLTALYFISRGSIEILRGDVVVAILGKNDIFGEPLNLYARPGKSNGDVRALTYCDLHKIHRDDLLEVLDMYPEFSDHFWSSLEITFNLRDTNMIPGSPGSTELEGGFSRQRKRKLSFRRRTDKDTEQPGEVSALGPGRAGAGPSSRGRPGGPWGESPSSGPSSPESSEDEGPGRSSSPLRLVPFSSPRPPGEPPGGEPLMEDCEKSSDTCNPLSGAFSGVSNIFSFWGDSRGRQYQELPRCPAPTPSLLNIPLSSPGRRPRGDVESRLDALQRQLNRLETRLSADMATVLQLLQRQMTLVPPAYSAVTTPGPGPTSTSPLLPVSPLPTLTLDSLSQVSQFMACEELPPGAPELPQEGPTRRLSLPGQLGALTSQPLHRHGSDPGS
Data set [11] is described as follows: Lipophilicity, logD of the compound by shake flask assay. In kind it is physicochemical. To be noted: octanol/water.
Data set [12] can be described thus: Intrinsic clearance in mouse liver microsomes in presence of NADPH and measured upto 45 mins. It counts as ADME, Microsome. The conditions noted are these: read-out: CLH. On the technique in general: Liver microsomes are vesicles of endoplasmic reticulum, rich in cytochrome P450 enzymes.
Data set [13] can be described thus: Intrinsic clearance in human liver microsomes in presence of NADPH and measured upto 45 mins. The conditions noted are these: read-out: CLH. In kind it is ADME, Microsome.
A short description of data set [14]: Kinetic solubility of compound. To be noted: read-out: Kinetic_solubility. In kind it is physicochemical.
Data set [15] in a line: Plasma protein binding in mouse assessed as free fraction by equilibrium dialysis assay. It counts as ADME, cell-free.
Data set [16] deals with DNA topoisomerase 2-alpha (Homo sapiens, UniProt P11388). As to the kind of experiment: Inhibition of human topoisomerase 2 assessed as reduction in decatenation.
Sequence of DNA topoisomerase 2-alpha (P11388 whole entry): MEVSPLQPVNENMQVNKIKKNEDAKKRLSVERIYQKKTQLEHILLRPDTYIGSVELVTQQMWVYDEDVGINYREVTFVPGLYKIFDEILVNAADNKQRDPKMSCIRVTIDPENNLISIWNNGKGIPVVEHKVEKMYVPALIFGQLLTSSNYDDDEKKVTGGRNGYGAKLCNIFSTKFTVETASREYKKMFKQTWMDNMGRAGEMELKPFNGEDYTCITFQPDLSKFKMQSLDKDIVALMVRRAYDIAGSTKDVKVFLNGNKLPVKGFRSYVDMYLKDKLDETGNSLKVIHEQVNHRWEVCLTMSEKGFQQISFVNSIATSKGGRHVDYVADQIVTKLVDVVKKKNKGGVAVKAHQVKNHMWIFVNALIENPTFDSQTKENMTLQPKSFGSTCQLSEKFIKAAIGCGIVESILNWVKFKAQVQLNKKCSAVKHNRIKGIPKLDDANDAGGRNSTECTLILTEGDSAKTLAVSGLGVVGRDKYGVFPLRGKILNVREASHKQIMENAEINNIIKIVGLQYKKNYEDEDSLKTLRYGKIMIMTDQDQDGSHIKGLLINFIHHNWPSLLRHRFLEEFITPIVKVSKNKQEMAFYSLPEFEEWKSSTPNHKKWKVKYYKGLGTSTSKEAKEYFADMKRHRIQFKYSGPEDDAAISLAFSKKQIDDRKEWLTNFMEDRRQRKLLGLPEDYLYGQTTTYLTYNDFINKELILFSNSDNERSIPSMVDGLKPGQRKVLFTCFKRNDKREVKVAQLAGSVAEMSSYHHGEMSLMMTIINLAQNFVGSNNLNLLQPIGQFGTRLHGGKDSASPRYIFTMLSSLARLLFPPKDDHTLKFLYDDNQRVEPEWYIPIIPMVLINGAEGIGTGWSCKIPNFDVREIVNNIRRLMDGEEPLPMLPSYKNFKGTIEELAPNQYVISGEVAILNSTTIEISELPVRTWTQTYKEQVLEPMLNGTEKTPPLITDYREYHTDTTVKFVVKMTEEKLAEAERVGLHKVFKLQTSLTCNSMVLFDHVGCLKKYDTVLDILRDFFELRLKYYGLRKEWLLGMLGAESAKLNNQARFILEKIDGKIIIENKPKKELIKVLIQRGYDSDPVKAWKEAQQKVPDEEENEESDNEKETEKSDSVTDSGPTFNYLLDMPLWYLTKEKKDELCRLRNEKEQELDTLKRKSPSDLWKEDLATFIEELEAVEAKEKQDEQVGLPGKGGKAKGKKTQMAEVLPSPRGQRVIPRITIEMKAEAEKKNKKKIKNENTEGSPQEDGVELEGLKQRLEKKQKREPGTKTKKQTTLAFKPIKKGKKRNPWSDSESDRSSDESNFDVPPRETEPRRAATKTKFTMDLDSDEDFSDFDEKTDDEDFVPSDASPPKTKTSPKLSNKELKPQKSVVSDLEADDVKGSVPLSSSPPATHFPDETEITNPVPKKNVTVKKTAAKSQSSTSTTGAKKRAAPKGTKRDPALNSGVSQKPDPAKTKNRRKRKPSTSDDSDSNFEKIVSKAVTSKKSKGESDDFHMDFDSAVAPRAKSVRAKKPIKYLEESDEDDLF
The test system of data set [17] is Escherichia coli. As to the kind of experiment: Resistance development in Escherichia coli ATCC25922 assessed as spontaneous resistance frequency at 4 times MIC by resistance development assay. In kind it is functional.
Data set [18] is described as follows: Protein binding in mouse plasma by equilibrium dialysis assay. In kind it is ADME, cell-free. The conditions noted are these: for fraction unbound: read-out: PPB (converted).
Data set [19] can be described thus: Protein binding in human plasma by equilibrium dialysis assay. In kind it is ADME, cell-free. The conditions noted are these: read-out: PPB (converted).
Data set [20] concerns Acinetobacter baumannii. The data set can be described thus: Antibacterial activity against […] Acinetobacter baumannii clinical isolate 43 assessed as bacterial growth inhibition by CLSI protocol based assay. In kind it is functional.
The test system of data set [21] is Pseudomonas aeruginosa. As to the kind of experiment: Antibacterial activity against Pseudomonas aeruginosa clinical isolate 42 assessed as bacterial growth inhibition by CLSI protocol based assay. It counts as functional.
In data set [22] the test system is Enterobacter cloacae. The data set can be described thus: Antibacterial activity against Enterobacter cloacae clinical isolate 41 assessed as bacterial growth inhibition by CLSI protocol based assay. In kind it is functional.
In data set [23] the test system is Escherichia coli. As to the kind of experiment: Antibacterial activity against Escherichia coli clinical isolate 42 assessed as bacterial growth inhibition by CLSI protocol based assay. It counts as functional.
The test system of data set [24] is Klebsiella pneumoniae. The data set can be described thus: Antibacterial activity against Klebsiella pneumoniae clinical isolate 42 assessed as bacterial growth inhibition by CLSI protocol based assay. It counts as functional.
Data set [25] deals with Acinetobacter baumannii. The data set can be described thus: In vivo antibacterial activity against multidrug resistant Acinetobacter baumannii NCTC 13420 infected in mouse thigh infection model assessed in reduction in bacterial burden at 30 mg/kg, sc administered at 1 hr post infection and measured after 8 hrs (reference value: 5.4 log10CFU/g). It counts as functional.

For data set [26], the system named is Acinetobacter baumannii. The data set can be described thus: In vivo antibacterial activity against multidrug resistant Acinetobacter baumannii NCTC 13420 infected in mouse thigh infection model assessed in reduction in bacterial burden at 45 mg/kg, sc administered at 1 hr post infection and measured after 8 hrs (reference value: 5.4 log10CFU/g). In kind it is functional.

Data set [27] has as its system Acinetobacter baumannii. As to the kind of experiment: In vivo antibacterial activity against multidrug resistant Acinetobacter baumannii NCTC 13420 infected in mouse thigh infection model assessed in reduction in bacterial burden at 60 mg/kg, sc administered at 1 hr post infection and measured after 8 hrs (reference value: 5.4 log10CFU/g). It counts as functional.

Data set [28] relates to Acinetobacter baumannii. The data set can be described thus: In vivo antibacterial activity against multidrug resistant Acinetobacter baumannii NCTC 13420 infected in mouse thigh infection model assessed in reduction in bacterial burden at 120 mg/kg, sc administered at 1 hr post infection and measured after 8 hrs (reference value: 5.4 log10CFU/g). It counts as functional.

Data set [29] concerns Acinetobacter baumannii. The data set can be described thus: In vivo antibacterial activity against multidrug resistant Acinetobacter baumannii NCTC 13420 infected in mouse thigh infection model assessed as log change in bacterial burden at 30 mg/kg, sc administered at 1 hr post infection and measured after 8 hrs relative to control. It counts as functional.
Data set [30] deals with Acinetobacter baumannii. The data set can be described thus: In vivo antibacterial activity against multidrug resistant Acinetobacter baumannii NCTC 13420 infected in mouse thigh infection model assessed as log change in bacterial burden at 45 mg/kg, sc administered at 1 hr post infection and measured after 8 hrs relative to control. In kind it is functional.
The subject of data set [31] is Acinetobacter baumannii. As to the kind of experiment: In vivo antibacterial activity against multidrug resistant Acinetobacter baumannii NCTC 13420 infected in mouse thigh infection model assessed as log change in bacterial burden at 60 mg/kg, sc administered at 1 hr post infection and measured after 8 hrs relative to control. It counts as functional.
In data set [32] the test system is Acinetobacter baumannii. As to the kind of experiment: In vivo antibacterial activity against multidrug resistant Acinetobacter baumannii NCTC 13420 infected in mouse thigh infection model assessed as log change in bacterial burden at 120 mg/kg, sc administered at 1 hr post infection and measured after 8 hrs relative to control. It counts as functional.
In data set [33] the test system is Escherichia coli. As to the kind of experiment: Antibacterial activity against Escherichia coli ATCC25922 assessed as bacterial growth inhibition by CLSI protocol based assay. In kind it is functional.

≈ marks a conversion by molar mass, not a printed value.

`COc1cnc2ccc(=O)n(CCCN[C@H]3CC[C@H]4[C@H](C3)OC(=O)N4c3ccc4c(n3)NC(=O)CO4)c2c1`: the IC50 is 0.46 µM in data set [1], 0.015 µM in data set [2], greater than 100 µM in data set [10] and greater than 100 µM in [16]. Moreover, the IC50 at 24 h in data set [3] was greater than 64 µg/mL. Also, the minimum inhibitory concentration (MIC) in data set [4] turned out to be 0.5 µg/mL (≈ 0.961 µM); in [5], 8 µg/mL (≈ 15.4 µM); in data set [6], 2 µg/mL (≈ 3.84 µM); in data set [7], 0.25 µg/mL (≈ 0.48 µM); in data set [8] it was 0.008 µg/mL (≈ 0.0154 µM); in [9], 0.06 µg/mL (≈ 0.115 µM). In data set [11], this compound registered a logD of 0.94. In addition, the results for the microsomal CLint in [12] and in data set [13] were 9 µL/min/mg and less than 3 µL/min/mg, respectively. In [14], the solubility kinetic is greater than 100 µM. For the same compound, the fraction unbound in [15] was greater than 0.3. In addition, the Activity in [17] is reported as 3.2 10^-7No_unit.

Turning to `COc1ccc2ccc(=O)n(CCN[C@H]3CC[C@H]4[C@H](C3)OC(=O)N4c3ccc4c(n3)NC(=O)CO4)c2n1`, the IC50 was 0.055 µM in data set [1], 0.01 µM in [2], 5 µM in [10] and 14.4 µM in data set [16]. The IC50 at 24 h in data set [3] is greater than 64 µg/mL. The MIC is 0.03 µg/mL (≈ 0.0592 µM) in data set [4]; 4 µg/mL (≈ 7.9 µM) in data set [5]; 1 µg/mL (≈ 1.97 µM) in data set [6]; 0.12 µg/mL (≈ 0.237 µM) in data set [7]; less than 0.008 µg/mL in data set [8]; 0.008 µg/mL (≈ 0.0158 µM) in [9]. In addition, in data set [33], the MIC amounted to 0.06 µg/mL (≈ 0.118 µM). The logD in data set [11] was determined as 1.95. For the same compound, the PPB in [18] is 15.8%. The fraction unbound in data set [19] was 0.856. Further, the microsomal CLint was 264 µL/min/mg in [12] and 110 µL/min/mg in data set [13]. Also, the MIC90 is 0.5 µg/mL (≈ 0.987 µM) in data set [20]; 4 µg/mL (≈ 7.9 µM) in data set [21]; 4 µg/mL (≈ 7.9 µM) in [22]; 1 µg/mL (≈ 1.97 µM) in data set [23]; 4 µg/mL (≈ 7.9 µM) in data set [24]. The solubility kinetic in data set [14] was found to be 76 µM (≈ 38.5 µg/mL). For the same compound, the Fu in data set [15] is 15%. Moreover, the Activity in data set [17] is <2.4 10^-9No_unit; in [25], 7.1 log10CFU/g; in data set [26], 6.6 log10CFU/g; in data set [27], 4.4 log10CFU/g; in [28] it was 3.9 log10CFU/g; in data set [29], 1.7 log10CFU/g. The results for the Activity in data set [30], in data set [31] and in data set [32] were 1.2 log10CFU/g, -1 log10CFU/g and -1.5 log10CFU/g, respectively.

With `COc1ccc2ccc(=O)n(CCN[C@H]3CC[C@H]4[C@@H](C3)OC(=O)N4c3ccc4c(n3)NC(=O)CO4)c2n1`, in [3], the IC50 at 24 h is greater than 8 µg/mL. For the same compound, the minimal inhibitory concentration (MIC) in data set [4] was 0.12 µg/mL (≈ 0.237 µM); in data set [5], 8 µg/mL (≈ 15.8 µM); in data set [6] it was 2 µg/mL (≈ 3.95 µM); in [7], 0.5 µg/mL (≈ 0.987 µM); in data set [8] it was less than 0.008 µg/mL; in data set [9] it was 0.03 µg/mL (≈ 0.0592 µM). Besides, in data set [10], the IC50 is 3 µM. This compound also came in with a logD in data set [11] of 2. In addition, the fraction unbound is 0.878 in [18] and 0.919 in data set [19].

On to `O=c1ccc2ncc(=O)n3c2n1C[C@H]3CN1CCC(NCc2cc3c(cn2)OCCC3)CC1` [GEPOTIDACIN], for which the IC50 in data set [2] was 0.035 µM; in data set [10], greater than 100 µM; in data set [16], 55.2 µM. In addition, in data set [3], the IC50 at 24 h is greater than 128 µg/mL. In addition, the MIC in data set [4] stood at 16 µg/mL (≈ 35.7 µM); in data set [5], 16 µg/mL (≈ 35.7 µM); in data set [6], 2 µg/mL (≈ 4.46 µM); in data set [7] it was 0.5 µg/mL (≈ 1.11 µM); in data set [8] it was 0.015 µg/mL (≈ 0.0334 µM); in data set [9] it was 0.5 µg/mL (≈ 1.11 µM). The MIC in [33] stood at 0.03 µg/mL (≈ 0.0669 µM). The compound further showed a logD in data set [11] of -0.63. Besides, the fraction unbound in data set [18] and in [19] was less than 0.7 throughout. The MIC90 was 32 µg/mL (≈ 71.3 µM) in [20]; 16 µg/mL (≈ 35.7 µM) in [21]; 16 µg/mL (≈ 35.7 µM) in data set [22]; 4 µg/mL (≈ 8.92 µM) in data set [23]; 16 µg/mL (≈ 35.7 µM) in data set [24]. Also, the Activity in data set [17] is on record as <2 10^-8No_unit.

In the case of `C[C@H]1COc2c(N3CCN(C)CC3)c(F)cc3c(=O)c(C(=O)O)cn1c23.C[C@H]1COc2c(N3CCN(C)CC3)c(F)cc3c(=O)c(C(=O)O)cn1c23.O` [LEVOFLOXACIN], the MIC90 came out at 16 µg/mL in data set [20]; 32 µg/mL in data set [21]; 32 µg/mL in data set [22]; 16 µg/mL in data set [23]; 16 µg/mL in data set [24].
